Laboratory results published in patent publication US5382679A, “Process for the preparation of glutathione S-acyl derivatives, compounds obtained from said process and an intermediate useful for the preparation thereof” (Boehringer Mannheim Italia S.p.A., priority 1990, dated 1995).

Assays:
[1] = Enzymatic hydrolysis of thioester bond in cytosol; format: in vitro ADME; conditions: GSH derivative 0, 16 mM; for enzymatic hydrolysis specific activity of thioester bond, Cytosol: mean ± SD on 6 tests
Source text: (§1) |The enzymatic hydrolysis specific activity of thioester |bond is expressed as -SH released nmoles/min/mg of […]. […] Spontaneous hy- |drolysis of the substrates ranges from 1% to 10% maxi- |mum. […] |sts.

[2] = Enzymatic hydrolysis of thioester bond in serum; format: in vitro ADME; conditions: GSH derivative 0, 16 mM, mean ± SD on 6 tests
Source text: as §1

SMILES | enzymatic hydrolysis specific activity of thioester bond, Cytosol [1] | Ratio (intracellular to extracellular hydrolysis rate, Cytosol/Serum) [1] | enzymatic hydrolysis specific activity of thioester bond, Serum [2]
CCOC(=O)CNC(=O)[C@H](CSC(=O)c1ccccc1)NC(=O)CC[C@H](N)C(=O)O [S-benzoyl-monoethylester, ethyl γ-L-glutamyl-S-benzoyl-L-cysteinyl glycinate] | 0,6 ± 0,08 -SH released nmoles/min/mg of | 6,0 | 0,10 ± 0,004 -SH released nmoles/min/mg of
CC(=O)SC[C@H](NC(=O)CC[C@H](N)C(=O)O)C(=O)NCC(=O)O [S-acetyl, γ-L-glutamyl-S-acetyl-L-cysteinyl-glycine] | 10,8 ± 1,5 -SH released nmoles/min/mg of | – | 0 -SH released nmoles/min/mg of
CC(C)(C)C(=O)SC[C@H](NC(=O)CC[C@H](N)C(=O)O)C(=O)NCC(=O)O [S-pivaloyl, γ-L-glutamyl-S-pivaloyl-L-cysteinyl-glycine] | 6,9 ± 0,7 -SH released nmoles/min/mg of | – | 0 -SH released nmoles/min/mg of
CCOC(=O)CNC(=O)[C@H](CSC(=O)c1ccccc1)NC(=O)CC[C@H](N)C(=O)OCC [S-benzoyl-diethylester] | 1,45 ± 0,8 -SH released nmoles/min/mg of | 18,5 | 0,07 ± 0,005 -SH released nmoles/min/mg of
N[C@@H](CCC(=O)N[C@@H](CSC(=O)Cc1ccccc1)C(=O)NCC(=O)O)C(=O)O [S-phenylacetyl, γ-L-glutamyl-S-phenylacetyl-L-cysteinyl-glycine] | 6,7 ± 0,9 -SH released nmoles/min/mg of | 134,0 | 0,05 ± 0,003 -SH released nmoles/min/mg of
N[C@@H](CCC(=O)N[C@@H](CSC(=O)c1ccccc1)C(=O)NCC(=O)O)C(=O)O [S-benzoyl, γ-L-glutamyl-S-benzoyl-L-cysteinyl-glycine] | 3,2 ± 1,1 -SH released nmoles/min/mg of | 80,0 | 0,04 ± 0,005 -SH released nmoles/min/mg of
